From US6627628B1, “Substituted 4-amino-2-aryl-cyclopenta[d]pyrimidines, their production and use and pharmaceutical preparations containing same” (Aventis Pharma Deutschland, GmbH, priority 1998, dated 2003) come the findings set out here.

Data set [1] addresses T1, soluble guanylate cyclase (sGC) (Bos taurus, UniProt P16068+P19687).
T1 construct: The sGC employed had been isolated from bovine lung; from tissue; host or cells: bovine lung
T1 sequence (P19687 1-691): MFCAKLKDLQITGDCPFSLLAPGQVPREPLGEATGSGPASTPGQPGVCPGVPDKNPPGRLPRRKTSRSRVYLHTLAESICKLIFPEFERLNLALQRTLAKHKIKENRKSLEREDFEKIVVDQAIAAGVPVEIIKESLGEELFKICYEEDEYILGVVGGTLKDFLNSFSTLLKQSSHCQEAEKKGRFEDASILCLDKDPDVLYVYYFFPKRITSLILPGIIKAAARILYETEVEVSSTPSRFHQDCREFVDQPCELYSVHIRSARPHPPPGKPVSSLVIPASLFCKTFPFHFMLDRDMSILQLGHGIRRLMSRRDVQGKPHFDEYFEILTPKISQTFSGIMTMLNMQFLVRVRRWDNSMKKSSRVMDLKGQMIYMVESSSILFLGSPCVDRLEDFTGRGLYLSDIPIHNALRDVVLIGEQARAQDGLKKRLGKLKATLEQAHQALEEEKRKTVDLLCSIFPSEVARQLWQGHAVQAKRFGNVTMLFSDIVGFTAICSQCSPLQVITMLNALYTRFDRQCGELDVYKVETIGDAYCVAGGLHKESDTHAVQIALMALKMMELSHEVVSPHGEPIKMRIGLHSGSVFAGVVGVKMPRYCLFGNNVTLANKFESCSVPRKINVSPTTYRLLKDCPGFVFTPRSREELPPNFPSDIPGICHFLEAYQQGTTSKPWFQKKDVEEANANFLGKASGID
T1 sequence (P16068 1-619): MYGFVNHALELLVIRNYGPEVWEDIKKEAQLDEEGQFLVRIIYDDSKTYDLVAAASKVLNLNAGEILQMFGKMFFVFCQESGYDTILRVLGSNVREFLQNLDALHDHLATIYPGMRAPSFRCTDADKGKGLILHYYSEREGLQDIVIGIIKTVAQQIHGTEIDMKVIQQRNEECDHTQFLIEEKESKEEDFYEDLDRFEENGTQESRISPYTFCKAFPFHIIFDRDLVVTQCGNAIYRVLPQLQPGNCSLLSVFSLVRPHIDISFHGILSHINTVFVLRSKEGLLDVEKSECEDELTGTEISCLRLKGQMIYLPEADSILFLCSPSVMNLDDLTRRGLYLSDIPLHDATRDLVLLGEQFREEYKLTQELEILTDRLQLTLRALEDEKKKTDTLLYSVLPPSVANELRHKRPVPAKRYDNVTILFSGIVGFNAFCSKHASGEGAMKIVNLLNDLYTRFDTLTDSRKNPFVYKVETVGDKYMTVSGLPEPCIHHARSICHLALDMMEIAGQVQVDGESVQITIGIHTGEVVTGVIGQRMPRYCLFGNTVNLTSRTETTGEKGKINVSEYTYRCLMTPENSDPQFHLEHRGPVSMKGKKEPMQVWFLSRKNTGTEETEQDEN
Put plainly: Activation of soluble guanylate cyclase (cGMP enzyme immunoassay). In kind it is biochemical. Particulars: sGC isolated from bovine lung; test substance 50 μM; 5% DMSO; 37° C., 15 to 20 minutes; [cGMP]test substance/[cGMP]control (basal enzyme activity). How it is done:
Activation of Soluble Guanylate Cyclase
The activation of soluble guanylate cyclase (sGC), which catalyzes the conversion of guanosine triphosphate (GTP) to cyclic guanosine monophosphate (cGMP) and pyrophosphate, by the compounds according to the invention was quantified with the aid of an enzyme immunoassay (EIA) from Amersham. For this, the test substances were first incubated with sGC in microtiter plates and then the quantity of the resulting cGMP was determined.
The test solutions (100 μl per well) contained 50 mM triethanolamine (TEA) buffer (pH 7.5), 3 mM MgCl2, 3 mM reduced glutathione (GSH), 0.1 mM GTP, 1 mM 3-isobutyl-1-methylxanthine (IBMX), suitably diluted enzyme solution and the test substance or, in the control experiments, solvent. The test substances were dissolved in dimethyl sulfoxide (DMSO) and the solution was diluted with DMSO/water such that the final concentration c of test substance in the test batch was 50 μM. The DMSO concentration in the test batch was 5% (v/v). The reaction was started by addition of the sGC. The reaction mix was incubated at 37° C. for 15 to 20 minutes and then stopped by ice-cooling and addition of the stop reagent (50 mM EDTA, pH 8.0). An aliquot of 50 μl was taken and employed for the determination of the cGMP content using the acetylation protocol of the Amersham cGMP EIA kit. The absorption of the samples was measured at 450 nm (reference wavelength 620 nm) in a microtiter plate reading apparatus. The cGMP concentration was determined by means of a calibration curve, which was obtained under the same experimental conditions.
n-fold stimulation=[cGMP]test substance/[cGMP]control.

`CCCCNc1nc(-c2ccc(C)cc2)nc2c1CCC2` [Example 40, 2-(4-Methylphenyl)-4-butylamino-6,7-dihydro-5H-cyclopenta[d]pyrimidine] yielded a melting point of 133 °C. For the same compound, the “n-fold stimulation at c = 50 μM” value in data set [1] stood at 8 fold.
With `CCN(CC)c1nc(-c2cccc(Cl)c2)nc2c1CCC2.Cl` [Example 25, 2-(3-Chlorophenyl)-4-diethylamino-6,7-dihydro-5H-cyclopenta[d]pyrimidine hydrochloride], the melting point is 185 °C. The “n-fold stimulation at c = 50 μM” value in data set [1] turned out to be 6 fold.
For `Cc1ccc(-c2nc3c(c(NC4CCCCC4)n2)CCC3)cc1` [Example 42, 2-(4-Methylphenyl)-4-cyclohexylamino-6,7-dihydro-5H-cyclopenta[d]pyrimidine] the same measures were 163 °C and 10 fold.
Take `Clc1ccc(-c2nc3c(c(NC4CCCC4)n2)CCC3)cc1` [Example 15, 2-(4-Chlorophenyl)-4-cyclopentylamino-6,7-dihydro-5H-cyclopenta[d]pyrimidine]: the “n-fold stimulation at c = 50 μM” value in data set [1] was 7 fold.
As for `OCCCCNc1nc(-c2cc(Cl)cc(Cl)c2)nc2c1CCC2` [Example 48, 2-(3,5-Dichlorophenyl)-4-(4-hydroxybutylamino)-6,7-dihydro-5H-cyclopenta[d]-pyrimidine], the melting point worked out at 142 °C. Besides, the “n-fold stimulation at c = 50 μM” value in data set [1] came out at 9 fold.
Compound `O[C@H]1CC[C@H](Nc2nc(-c3ccc(Cl)cc3)nc3c2CCC3)CC1` [Example 34, 2-(4-Chlorophenyl)-4-(trans-4-hydroxycyclohexylamino)-6,7-dihydro-5H-cyclopenta[d]pyrimidine] displayed a melting point of 216 °C. The “n-fold stimulation at c = 50 μM” value in data set [1] amounted to 35 fold.
On to `Clc1cc(Cl)cc(-c2nc3c(c(NC4CCCC4)n2)CCC3)c1` [Example 50, 2-(3,5-Dichlorophenyl)-4-cyclopentylamino-6,7-dihydro-5H-cyclopenta[d]-pyrimidine], for which the melting point stood at 153 °C. Besides, the “n-fold stimulation at c = 50 μM” value in data set [1] was 8 fold.
`Cc1ccc(-c2nc3c(c(NC4CCCC4)n2)CCC3)cc1` [Example 41, 2-(4-Methylphenyl)-4-cyclopentylamino-6,7-dihydro-5H-cyclopenta[d]pyrimidine] registered a melting point of 183 °C. In data set [1], the “n-fold stimulation at c = 50 μM” value was found to be 9 fold.
With `CCN(CC)c1nc(-c2ccc(Cl)cc2)nc2c1CCC2.Cl` [Example 26, 2-(4-Chlorophenyl)-4-diethylamino-6,7-dihydro-5H-cyclopenta[d]pyrimidine hydrochloride], the melting point came to 185 °C. Besides, the “n-fold stimulation at c = 50 μM” value in data set [1] is recorded as 5 fold.
On to `CS(=O)(=O)O.O[C@H]1CC[C@H](Nc2nc(-c3cc(Cl)cc(Cl)c3)nc3c2CCC3)CC1` [Example 16, 2-(3,5-Dichlorophenyl)-4-(trans-4-hydroxycyclohexylamino)-6,7-dihydro-5H-cyclopenta[d]pyrimidine methanesulfonic acid salt], for which the “n-fold stimulation at c = 50 μM” value in data set [1] is recorded as 34 fold.
Regarding `Clc1cccc(-c2nc3c(c(NC4CCCC4)n2)CCC3)c1` [Example 32, 2-(3-Chlorophenyl)-4-cyclopentylamino-6,7-dihydro-5H-cyclopenta[d]pyrimidine], the melting point is 129 °C. The “n-fold stimulation at c = 50 μM” value in data set [1] worked out at 15 fold.
`CCCCNc1nc(-c2cc(Cl)cc(Cl)c2)nc2c1CCC2` [Example 49, 2-(3,5-Dichlorophenyl)-4-butylamino-6,7-dihydro-5H-cyclopenta[d]pyrimidine] had a melting point of 93 °C. The “n-fold stimulation at c = 50 μM” value in data set [1] came to 5 fold.
In the case of `CCCCNc1nc(-c2ccc(Cl)cc2)nc2c1CCC2` [Example 30, 2-(4-Chlorophenyl)-4-butylamino-6,7-dihydro-5H-cyclopenta[d]pyrimidine], the melting point is 121 °C. In addition, the “n-fold stimulation at c = 50 μM” value in data set [1] turned out to be 6 fold.
For `CCCCNc1nc(-c2cccc(Cl)c2)nc2c1CCC2` [Example 33, 2-(3-Chlorophenyl)-4-butylamino-6,7-dihydro-5H-cyclopenta[d]pyrimidine], in data set [1], the “n-fold stimulation at c = 50 μM” value is 5 fold.
In turn, `Cl.Cl.Clc1ccc(-c2nc3c(c(N(Cc4ccccc4)C4CCNCC4)n2)CCC3)cc1` yielded a melting point of 275 °C.
`CCCN(CCC)c1nc(-c2ccc(Cl)cc2)nc2c1CCC2` [Example 35, 2-(4-Chlorophenyl)-4-dipropylamino-6,7-dihydro-5H-cyclopenta[d]pyrimidine] came in with a melting point of 114 °C. Also, the “n-fold stimulation at c = 50 μM” value in data set [1] was 7 fold.
Take `CCCN(CCC)c1nc(-c2ccc(C)cc2)nc2c1CCC2` [Example 45, 2-(4-Methylphenyl)-4-dipropylamino-6,7-dihydro-5H-cyclopenta[d]pyrimidine]: the melting point was 117 °C. Also, the “n-fold stimulation at c = 50 μM” value in data set [1] was 7 fold.
For `Cc1ccc(-c2nc3c(c(N[C@H]4CC[C@H](O)CC4)n2)CCC3)cc1` [Example 43, 2-(4-Methylphenyl)-4-(trans-4-hydroxycyclohexylamino)-6,7-dihydro-5H-cyclopenta[d]pyrimidine] the same measures were 191 °C and 23 fold.
In turn, `Clc1cccc(-c2nc3c(c(N4CCOCC4)n2)CCC3)c1` [Example 20, 2-(3-Chlorophenyl)-4-morpholino-6,7-dihydro-5H-cyclopenta[d]pyrimidine] showed a melting point of 132 °C.
As for `COc1cccc(CCNc2nc(-c3ccc(Cl)cc3)nc3c2CCC3)c1.Cl`, the melting point came out at 230 °C.
Turning to `OCCNc1nc(-c2ccc(Cl)cc2)nc2c1CCC2` [Example 18, 2-(4-Chlorophenyl)-4-(2-hydroxyethylamino)-6,7-dihydro-5H-cyclopenta[d]-pyrimidine], the melting point was determined as 160 °C.
On the same count and under the same terms, the figure for `CCCN(CCC)c1nc(-c2cc(Cl)cc(Cl)c2)nc2c1CCC2` [Example 52, 2-(3,5-Dichlorophenyl)-4-dipropylamino-6,7-dihydro-5H-cyclopenta[d]pyrimidine] is 120 °C; for `COc1ccc(-c2nc3c(c(NC4CCCCC4)n2)CCC3)cc1` [Example 57, 2-(4-Methoxyphenyl)-4-cyclohexylamino-6,7-dihydro-5H-cyclopenta[d]-pyrimidine] it is 138 °C; for `COc1ccc(-c2nc3c(c(N4CCOCC4)n2)CCC3)cc1` [Example 61, 2-(4-Methoxyphenyl)-4-morpholino-6,7-dihydro-5H-cyclopenta[d]pyrimidine] it is 192 °C.
Same read-out and setting: the figure for `Cc1ccc(-c2nc3c(c(NCCO)n2)CCC3)cc1` [Example 39, 2-(4-Methylphenyl)-4-(2-hydroxyethylamino)-6,7-dihydro-5H-cyclopenta[d]-pyrimidine] is 191 °C.
Same read-out and setting: the figure for `N#Cc1ccc(-c2nc3c(c(N4CCCCC4)n2)CCC3)cc1` [Example 72, 2-(4-Cyanophenyl)-4-piperidino-6,7-dihydro-5H-cyclopenta[d]pyrimidine] is 152 °C.

Broadly, the melting point is the temperature of the solid-liquid transition.
